Results as given in patent publication US20180311342A1, “IMMUNOSTIMULATING AGENT” (AJINOMOTO CO., INC., priority 2017, published 2018).

Experiments:
Type in all cases: in vivo, BALB/c mice
[1] = tested on: anti-OVA-specific IgG1 and IgG2a subclass antibody production; experiment: Evaluation test of adjuvant activity (overall conclusion from anti-OVA IgG1 and IgG2a production)
Method: 8-Week-old female BALB/c mice were divided into groups (N=6), and each group was primarily immunized by dorsal-subcutaneous administration of (1) ovalbumin (OVA) (5 μg) dissolved in saline as an antigen (OVA single administration group), (2) OVA 5 μg and Addavax™ (mixed with saline at 1:1) dissolved in saline (Addavax™ administration group) as positive control adjuvant, (3) OVA 5 μg and SZ137 0.256 μmol dissolved or dispersed in 5% α-cyclodextrin (hereinafter to be simply referred to as αCD)-added saline (SZ137 administration group), (4) OVA (5 μg) and SZ138 (0.256 μmol) dissolved or dispersed in 5% αCD-added saline (SZ138 administration group), (5) OVA (5 μg) and SZ142 (0.256 μmol) dissolved or dispersed in 5% αCD-added saline (SZ142 administration group), (6) OVA (5 μg) and SZ144 (0.256 μmol) dissolved or dispersed in 5% αCD-added saline (SZ144 administration group), (7) OVA (5 μg) and SZ145 (0.256 μmol) dissolved or dispersed in 5% αCD-added saline (SZ145 administration group), (8) OVA (5 μg) and SZ146 (0.256 μmol) dissolved or dispersed in 5% αCD-added saline (SZ146 administration group), (9) OVA (5 μg) and SZ147 (0.256 μmol) dissolved or dispersed in 5% αCD-added saline (SZ147 administration group), (10) OVA (5 μg) and SZ148 (0.256 μmol) dissolved or dispersed in 5% αCD-added saline (SZ148 administration group), each per mouse. Two week later, the secondary immunization was carried out by dorsal-subcutaneous administration of solutions or dispersions similar to those of the above-mentioned (1)-(10) again. […]
To a 96 well plate was added 5 μg/ml OVA at 100 µl/well, and the mixture was incubated at 4° C. overnight. After incubation, the mixture was washed three times with 200 μl of PBS-T (PBS (phosphate buffered saline)+0.05% (v/v) Tween 20) per well, and blocked with 100 μl of 5% FCS (fetal calf serum)/PBS solution per well at room temperature for 1-2 hr. Thereafter, the mixture was washed three times with PBS-T (200 μl/well), a diluted serum sample (100 l/well) or the same amount of 5% FCS/PBS solution as a control was added, and the mixture was incubated at 37° C. for 1 hr. To calculate concentration of the antibody, the standard of an anti-OVA-specific IgG1 subclass antibody diluted with 2% FCS/PBS solution was added at 100 ng/ml, 50 ng/ml, 25 ng/ml, 12.5 ng/ml, 6.25 ng/ml, 3.125 ng/ml, 1.56 ng/ml, 0.781 ng/ml, 0.391 ng/ml, 0.195 ng/ml, 0.098 ng/ml, 0 ng/ml, per 1 well. When an anti-OVA-specific IgG2a subclass antibody was measured, the standard of an anti-OVA-specific IgG2a subclass antibody was added at 50 ng/ml, 25 ng/ml, 12.5 ng/ml, 6.25 ng/ml, 3.125 ng/ml, 1.56 ng/ml, 0.781 ng/ml, 0.391 ng/ml, 0.195 ng/ml, 0.098 ng/ml, 0.049 ng/ml, 0 ng/ml, per 1 well. Thereafter, similar to the samples, the mixture was washed five times with PBS-T (200 μl/well), a diluted biotinylated anti-mouse IgG1 antibody and IgG2a antibody were added (100 μl/well), and the mixture was incubated at 37° C. for 45 min. Thereafter, the mixture was washed five times with PBS-T (200 μl/well), a diluted anti-biotin-HRP antibody was added (100 μl/well), and the mixture was incubated at 37° C. for another 30 min. Thereafter, the mixture was washed five times with PBS-T (200 μl/well), TMB substrate solution was added (100 μl/well), and the mixture was incubated at room temperature for 10-15 min. Thereafter, a reaction quenching liquid (2N sulfuric acid solution) was added (50 l/well) to discontinue a color developing reaction, and the absorbance (OD Value=450 nm) was measured by a microplate reader. A standard curve was drawn from the measured OD values, and the concentration was calculated. […]

[2] = tested on: anti-OVA-specific IgG2a subclass antibody; experiment: Adjuvant activity test: anti-OVA-specific IgG2a subclass antibody in serum of OVA-immunized mice (ELISA); details: dorsal-subcutaneous, compared to OVA single administration group
[3] = tested on: anti-OVA-specific IgG1 subclass antibody; experiment: Adjuvant activity test: anti-OVA-specific IgG1 subclass antibody in serum of OVA-immunized mice (ELISA); details: dorsal-subcutaneous, compared to OVA single administration group
[4] = conclusion from IgG1/IgG2a after primary immunization, compound 0.256 μmol in 5% αCD-added saline with OVA 5 μg, dorsal-subcutaneous
[5] = conclusion from IgG1/IgG2a after secondary immunization, compound 0.256 μmol in 5% αCD-added saline with OVA 5 μg, dorsal-subcutaneous
[6] = after primary immunization, serum 2 weeks later, OVA 5 μg + compound 0.256 μmol in 5% αCD-added saline (Addavax mixed with saline at 1:1)
[7] = Experimental Example 4: after secondary immunization, OVA 5 μg + compound 0.256 μmol dissolved in saline (no αCD)

| SMILES | adjuvant activity [1, 4] | adjuvant activity [1, 5] | anti-OVA-specific IgG2a subclass antibody production [2, 6] | anti-OVA-specific IgG1 subclass antibody production [3, 6] | adjuvant activity ([1]; Experimental Example 4: conclusion from IgG1/IgG2a after secondary immunization, compound dissolved in saline) | anti-OVA-specific IgG2a subclass antibody production [2, 7] | anti-OVA-specific IgG1 subclass antibody production [3, 7] |
| --- | --- | --- | --- | --- | --- | --- | --- |
| CCCCCCCCCCCCCCCCNC(=O)N[C@@H](CCCCN)C(=O)NCCCCCCCC.Cl [SZ213, (2S)-6-amino-2-(hexadecylcarbamoylamino)-N-octyl-hexanamide hydrochloride] | have an adjuvant activity | have an adjuvant activity | significant enhancement | a tendency toward increase |  |  |  |
| CCCCCCCCCCCCCCCCNC(=O)N[C@@H](CCCNC(=N)N)C(=O)NCCCCCCCC.Cl [SZ210, (2S)-5-guanidino-2-(hexadecylcarbamoylamino)-N-octyl-pentanamide hydrochloride] | have an adjuvant activity | have an adjuvant activity | significant enhancement | significant enhancement |  |  |  |
| CCCCCCCCCCCCCCCCCCCC(=O)N[C@@H](CCCNC(=N)N)C(=O)NCCCCCCCCCCCC.Cl [SZ180, N-[(1S)-1-(dodecylcarbamoyl)-4-guanidino-butyl]icosanamide hydrochloride] | have an adjuvant activity | have an adjuvant activity | significant enhancement | significant enhancement |  |  |  |
| CCCCCCCCCCCCCCCC(=O)N[C@@H](CC(C)C)C(=O)NCCCCCCCC [SZ199, N-[(1S)-3-methyl-1-(octylcarbamoyl)butyl]hexadecanamide] | have an adjuvant activity | have an adjuvant activity | significant enhancement | significant enhancement |  |  |  |
| CCCCCCCCCCCCCCCCNC(=O)N[C@@H](CCCCN)C(=O)NCCCCCCCCCCCC.Cl [SZ214, (2S)-6-amino-N-dodecyl-2-(hexadecylcarbamoylamino)hexanamide hydrochloride] | have an adjuvant activity | have an adjuvant activity | significant enhancement | significant enhancement |  |  |  |
| CCCCCCCCCCCCCCCCCC(=O)N[C@@H](CC(C)C)C(=O)NCCCCCCCC [SZ196, N-[(1S)-3-methyl-1-(octylcarbamoyl)butyl]octadecanamide] | have an adjuvant activity | have an adjuvant activity | tended to increase | tended to increase |  |  |  |
| CCCCCCCCCCCCCCCCCC(=O)N[C@@H](CC(C)C)C(=O)NCCCCCCCCCCCC [SZ195, N-[(1S)-1-(dodecylcarbamoyl)-3-methyl-butyl]octadecanamide] | have an adjuvant activity | have an adjuvant activity | tended to increase | tended to increase |  |  |  |
| CCCCCCCCCCCCNC(=O)[C@H](CCCNC(=N)N)NC(=O)OCCCCCCCCCCCC.Cl [SZ187, dodecyl N-[(1S)-1-(dodecylcarbamoyl)-4-guanidino-butyl]carbamate hydrochloride] | have an adjuvant activity | have an adjuvant activity | significant enhancement | significant enhancement |  |  |  |
| CCCCCCCCCCCCCCCCNC(=O)N[C@H](CCCNC(=N)N)C(=O)NCCCCCCCCCCCC.Cl [SZ193, (2R)—N-dodecyl-5-guanidino-2-(hexadecylcarbamoylamino)pentanamide hydrochloride] | have an adjuvant activity | have an adjuvant activity | significant enhancement | significant enhancement |  |  |  |
| CCCCCCCCCCCCCCCC(=O)N[C@@H](CCCNC(=N)N)C(=O)NCCCCCCCC.Cl [SZ181, N-[(1S)-4-guanidino-1-(octylcarbamoyl)butyl]hexadecanamide hydrochloride] | have an adjuvant activity | have an adjuvant activity | a tendency toward increase was found | a tendency toward increase was found |  |  |  |
| CCCCCCCCCCCCCCCCNC(=O)N[C@@H](CC(C)C)C(=O)NCCCCCCCC [SZ201, (2S)-2-(hexadecylcarbamoylamino)-4-methyl-N-octyl-pentanamide] | have an adjuvant activity | have an adjuvant activity | tended to increase | tended to increase |  |  |  |
| CCCCCCCCCCCCCCCCCC(=O)N[C@@H](CCCCN)C(=O)NCCCCCCCCCCCC.Cl [SZ185, N-[(1S)-5-amino-1-(dodecylcarbamoyl)pentyl]octadecanamide hydrochloride] | have an adjuvant activity | have an adjuvant activity | significant enhancement | significant enhancement |  |  |  |
| CCCCCCCCCCCCCCCCOC(=O)N[C@@H](CCCCN)C(=O)NCCCCCCCCCCCC.Cl [SZ189, hexadecyl N-[(1S)-5-amino-1-(dodecylcarbamoyl)pentyl]carbamate hydrochloride] | have an adjuvant activity | have an adjuvant activity | a tendency toward increase was found | a tendency toward increase was found |  |  |  |
| CCCCCCCCCCCCCCCCNC(=O)NCCCCNC(=N)N.Cl [SZ190, 1-(4-guanidinobutyl)-3-hexadecyl-urea hydrochloride] | have an adjuvant activity | have an adjuvant activity | a tendency toward increase was found | a tendency toward increase was found |  |  |  |
| CCCCCCCCCCCCCCCC(=O)N[C@@H](CCCNC(=N)N)C(=O)NCCCCCCCCCCCC.Cl [SZ111, N-[(1S)-1-(dodecylcarbamoyl)-4-guanidino-butyl]hexadecanamide hydrochloride] |  | has an adjuvant activity |  |  | has an adjuvant activity | significantly increased | significantly increased |
